This passage reports IC50 results from US20200123127A1, “REMOVAL OF SENESCENCE-ASSOCIATED MACROPHAGES” (EVERON BIOSCIENCES, INC., priority 2016, published 2020).

Molecules are shown by their SMILES. Where two headings read alike, the source gives them in different places.

Experiment [1] has as its system human neonatal dermal fibroblasts (NDF). The experiment is described as follows: Resazurin viability assay, senescent vs proliferating/quiescent human neonatal dermal fibroblasts. Particulars: Homo sapiens, Fibroblast, 72 h, 72 hour exposure, resazurin. The experiment is classed as cell-based. As for the experimental part: FIG. 2. Compound A1.1 selectively kills senescent human neonatal dermal fibroblasts (NDF) cells in a dose- and time-dependent manner. (FIG. 2A) Normal proliferating and quiescent NDF cells, and the cells made senescent via exposure to genotoxic agents (doxorubicin, bleomycin and gamma-irradiation) were incubated with increasing concentrations of A1.1. At 72 hours post-treatment cell viability was measured via resazurin viability assay. (FIG. 2B) Compound A1.1 selectively kills senescent NDF cells in time-dependent manner discriminating between acute genotoxic stress and senescence. Acutely damaged NDF cells were irradiated with 4 Gy gamma-irradiation 24 hours before A1.1 treatment. Senescent NDF cells were treated with bleomycin or irradiated with 15 Gy and incubated for 14 days to induce senescence before treatment with A1.1. Proliferating acutely damaged and senescent NDF cell were treated with 1.875-30 μM A1.1 and viable cells were measured at 72 hours after treatment. Average and standard deviation are shown.
Normal proliferating and quiescent NDF cells, and the cells made senescent via exposure to genotoxic agents (doxorubicin, bleomycin and gamma-irradiation) were incubated with increasing concentrations of A1.1. At 72 hours post-treatment cell viability was measured via resazurin viability assay.
A1.1 selectively kills senescent human neonatal dermal fibroblasts (NDF) cells in time-dependent manner discriminating between acute genotoxic stress and senescence ([…]). Acutely damaged NDF cells were irradiated with 4 Gy gamma-irradiation 24 hours before A1.1 treatment. Senescent NDF cells were treated with bleomycin or irradiated with 15 Gy and incubated for 14 days to induce senescence before treatment with A1.1.
(§1) Cytotoxicity of A1.1 analogs against bleomycin-induced senescent human NDFs and rat dermal fibroblasts (RDFs). Activity of analogs was assessed from dose-response curves against irradiation- or bleomycin-induced senescent and proliferating cells to calculate IC50s (uM). The fold difference of proliferating versus senescent cell IC50s was used to assess the level of specific anti-senescent activity of the compounds.
(§2) For generation senescent human neonatal dermal fibroblasts (NDFs) and adult rat dermal fibroblasts (RDFs), cells are treated at ˜10 ug/ml bleomycin for 3 days (for bleomycin-induced senescence) or irradiated once at 20 Gy using a gamma irradiator (Cs source), followed by at least 7 day recovery in fresh medium for induction of senescence. Senescent and non-senescent (proliferating) cells for each cell line are plated into 384-w plate, followed by 72 hour exposure to a dose titration of compounds. Viability measurements are estimated using the resazurin viability assay. Using GraphPad Prism 5, the IC50 values are calculated from the non-linear regression of log-transformed compound concentrations versus dose-response normalized to background and non-treated controls.
(In general: Alamar Blue is a resazurin reagent that responds to reducing activity.)

For experiment [2], the system named is adult rat dermal fibroblasts (RDF). The experiment is described as follows: Resazurin viability assay, senescent vs proliferating rat dermal fibroblasts. Particulars: Rattus norvegicus, Fibroblast, 72 hour exposure, resazurin. The experiment is classed as cell-based. As to the method:
as §1, §2

Setting [3] is: proliferating NDF, read-out: IC50 NDFprolif.
Where [4] appears, read: senescent NDF, bleomycin-induced, read-out: IC50 NDFsen.bleo.
The mark [5] stands for this setting: light or radiation study, senescent NDF, irradiation-induced, read-out: IC50 NDFsen.irr.
The mark [6] stands for this setting: light or radiation study, senescent RDF, irradiation-induced, read-out: IC50 RDFsen.irr.
Setting [7] is: proliferating RDF, read-out: IC50 RDFprolif.
Setting [8] is: senescent RDF, bleomycin-induced, read-out: IC50 RDFsen.bleo.

A word on the IC50: it is the concentration that gives 50% inhibition. With `Cc1ccc(CNc2ncc3c(n2)CC(c2ccccc2)C/C3=N\O)cc1` (stereo not drawn) [Example A2.1, 2-((4-Methylbenzyl)amino)-7-phenyl-7,8-dihydroquinazolin-5(6H)-one oxime], the IC50 in experiment [1] (setting [3]) is greater than 20 µM; in experiment [1] (setting [4]), less than 5 µM; in experiment [1] (setting [5]), less than 5 µM; in experiment [2] (setting [6]), less than 5 µM; in experiment [2] (setting [7]), greater than 20 µM; in experiment [2] (setting [8]) it was less than 5 µM.

For `COc1ccc(C2CC(=NO)c3c(SCc4ccccc4)sc(C(=O)OCc4ccccc4)c3C2)cc1` (stereo not drawn) [Example A1.8, Benzyl 3-(benzylthio)-4-(hydroxyimino)-6-(4-methoxyphenyl)-4,5,6,7-tetrahydrobenzo[c]-thiophene-1-carboxylate], the figures for the IC50 in experiment [1] (setting [3]) and in experiment [1] (setting [4]) were greater than 20 µM and less than 10 µM, respectively.

On to `COc1ccc(C2C/C(=N\O)c3c(SCc4ccccc4)sc(C(=O)NCc4ccccc4)c3C2)cc1` (stereo not drawn) [Example A1.14, N-benzyl-3-(benzylthio)-4-(hydroxyimino)-6-(4-methoxyphenyl)-4,5,6,7-tetrahydrobenzo[c]thiophene-1-carboxamide], for which the IC50 in experiment [1] (setting [3]) is greater than 20 µM; in experiment [1] (setting [4]), less than 5 µM; in experiment [1] (setting [5]), less than 5 µM; in experiment [2] (setting [6]), less than 2.5 µM; in experiment [2] (setting [7]), greater than 20 µM; in experiment [2] (setting [8]), less than 2.5 µM.

For `COc1ccc(C2C/C(=N\O)c3c(SCc4ccccc4)sc(C(=O)NCc4ccco4)c3C2)cc1` (stereo not drawn) [Example A1.15, 3-(Benzylthio)-N-(furan-2-ylmethyl)-4-(hydroxyimino)-6-(4-methoxyphenyl)-4,5,6,7-tetrahydrobenzo[c]thiophene-1-carboxamide], the IC50 in experiment [1] (setting [3]) was greater than 20 µM; in experiment [1] (setting [4]), less than 5 µM; in experiment [1] (setting [5]), less than 5 µM; in experiment [2] (setting [6]) it was less than 5 µM; in experiment [2] (setting [7]) it was greater than 20 µM; in experiment [2] (setting [8]) it was less than 2.6 µM.

With `COc1ccc(C2C/C(=N\O)c3sc(NC(=O)COc4ccc(C)cc4)nc3C2)cc1` (stereo not drawn) [Example A4.1], the IC50 in experiment [1] (setting [3]) is greater than 5 µM; in experiment [1] (setting [4]) it was less than 5 µM; in experiment [1] (setting [5]), less than 2.5 µM; in experiment [2] (setting [6]), less than 5 µM; in experiment [2] (setting [7]), less than 10 µM; in experiment [2] (setting [8]), less than 5 µM.

Turning to `CCOC(=O)c1sc(Sc2ccccc2)c2c1CC(c1ccc(OC)cc1)C/C2=N\O` (stereo not drawn) [Example A1.5, Ethyl 4-(hydroxyimino)-6-(4-methoxyphenyl)-3-(phenylthio)-4,5,6,7-tetrahydro-benzo[c]thiophene-1-carboxylate], the IC50 in experiment [1] (setting [3]) was greater than 10 µM; in experiment [1] (setting [4]) it was less than 10 µM; in experiment [1] (setting [5]), less than 10 µM; in experiment [2] (setting [6]) it was less than 5 µM; in experiment [2] (setting [7]), greater than 10 µM; in experiment [2] (setting [8]), less than 5 µM.

With `Nc1nc(CCCc2ccccc2)c2c(n1)CC(c1ccccc1)C/C2=N\O` (stereo not drawn) [Example A2.3, 2-Amino-7-phenyl-4-(3-phenylpropyl)-7,8-dihydroquinazolin-5(6H)-one oxime], the IC50 was greater than 20 µM in experiment [1] (setting [3]); less than 20 µM in experiment [1] (setting [4]); less than 20 µM in experiment [1] (setting [5]); greater than 20 µM in experiment [2] (setting [7]); less than 15 µM in experiment [2] (setting [8]).

`CCOC(=O)c1sc(SCc2ccccc2)c2c1CC(c1ccc(F)cc1)CC2=NO` (stereo not drawn) [Example A1.7, Ethyl 3-(benzylthio)-6-(4-fluorophenyl)-4-(hydroxyimino)-4,5,6,7-tetrahydrobenzo[c]-thiophene-1-carboxylate]: the IC50 in experiment [1] (setting [3]) is greater than 10 µM; in experiment [1] (setting [4]) it was less than 2.5 µM; in experiment [1] (setting [5]), less than 2.5 µM; in experiment [2] (setting [6]), less than 2.5 µM; in experiment [2] (setting [7]), greater than 5 µM; in experiment [2] (setting [8]) it was less than 2.5 µM.

For the compound `O=C(Nc1ccccc1)c1cc2c(nc1NCCOc1ccccc1)CC(c1ccccc1)C/C2=N\O` (stereo not drawn) [Example A3.1, 5-(Hydroxyimino)-2-((2-phenoxyethyl)amino)-N,7-diphenyl-5,6,7,8-tetrahydroquinoline-3-carboxamide], the IC50 in experiment [1] (setting [3]) is less than 5 µM; in experiment [1] (setting [4]), less than 2.5 µM; in experiment [1] (setting [5]), less than 2.5 µM; in experiment [2] (setting [6]) it was less than 2.5 µM; in experiment [2] (setting [7]), greater than 20 µM; in experiment [2] (setting [8]), less than 2.5 µM.

For the compound `O/N=C1\CC(c2ccccc2)Cc2nc(NCCOc3ccccc3)ncc21` (stereo not drawn) [Example A2.2, 2-((2-Phenoxyethyl)amino)-7-phenyl-7,8-dihydroquinazolin-5(6H)-one oxime], the IC50 in experiment [1] (setting [3]) was greater than 20 µM; in experiment [1] (setting [4]) it was less than 2.5 µM; in experiment [1] (setting [5]) it was less than 5 µM; in experiment [2] (setting [6]), less than 2.5 µM; in experiment [2] (setting [7]) it was greater than 20 µM; in experiment [2] (setting [8]) it was less than 2.5 µM.

Regarding `O/N=C1\CC(c2ccccc2)Cc2nc(NCc3ccccc3)sc21` (stereo not drawn) [Example A4.2, 2-(Benzylamino)-5-phenyl-5,6-dihydrobenzo[d]thiazol-7(4H)-one oxime], the IC50 in experiment [1] (setting [3]) is greater than 20 µM; in experiment [1] (setting [4]), less than 15 µM; in experiment [1] (setting [5]), less than 15 µM; in experiment [2] (setting [6]), less than 10 µM; in experiment [2] (setting [7]), greater than 20 µM; in experiment [2] (setting [8]), less than 10 µM.

As for `N#Cc1cc2c(nc1SCc1ccccc1)CC(c1ccccc1)C/C2=N\O` (stereo not drawn) [Example A3.2, 2-(Benzylthio)-5-(hydroxyimino)-7-phenyl-5,6,7,8-tetrahydroquinoline-3-carbonitrile], the IC50 in experiment [1] (setting [3]) was greater than 20 µM; in experiment [1] (setting [4]), less than 15 µM; in experiment [1] (setting [5]), less than 10 µM; in experiment [2] (setting [6]), less than 2.5 µM; in experiment [2] (setting [7]) it was greater than 20 µM; in experiment [2] (setting [8]), less than 5 µM.

As to `CC1(C)CC(=NO)c2c(SCc3ccccc3)sc(C(=O)NCc3ccccc3)c2C1` [Example A1.4, N-benzyl-3-(benzylthio)-4-(hydroxyimino)-6,6-dimethyl-4,5,6,7-tetrahydrobenzo[c]thiophene-1-carboxamide], the concentration for half-maximal inhibition (IC50) is greater than 20 µM in experiment [1] (setting [3]) and less than 10 µM in experiment [1] (setting [4]).

Regarding `CCOC(=O)c1sc(SCc2ccccc2)c2c1C(c1ccc(OC)cc1)CC/C2=N\O` (stereo not drawn) [Example A1.9, Ethyl 3-(benzylthio)-4-(hydroxyimino)-7-(4-methoxyphenyl)-4,5,6,7-tetrahydrobenzo[c]-thiophene-1-carboxylate], the IC50 in experiment [1] (setting [3]) is greater than 20 µM; in experiment [1] (setting [4]), less than 20 µM; in experiment [1] (setting [5]), less than 20 µM; in experiment [2] (setting [6]) it was less than 20 µM; in experiment [2] (setting [7]) it was greater than 20 µM; in experiment [2] (setting [8]), greater than 20 µM.
